Experimental data from patent publication US10800760B2, “Trk inhibition” (NantBio, Inc., priority 2017, dated 2020).

Molecular target: T1, TrkA(h) (Homo sapiens, UniProt P04629)
T1 construct: purchased Millipore (KinaseProfiler Service)
Experiment: KinaseProfiler (Millipore) radiometric kinase assay, TrkA(h)
Format: biochemical
Settings: compound concentration 1 μM
Experimental: The KinaseProfiler™ Service Assay Protocols (Millipore) were used to test the kinase inhibiting activity of the novel compounds from this invention. To do this, the buffer composition was as follows: 20 mM MOPS, 1 mM EDTA, 0.01% Brij-35, 5% Glycerol, 0.1% β-mercaptoethanol, 1 mg/mL BSA. Test compounds were initially dissolved in DMSO at the desired concentration, then serially diluted into the kinase assay buffer. In a final reaction volume of 25 μL, TrkA(h) (5-10 mU) is incubated with 8 mM MOPS pH 7.0, 0.2 mM EDTA, 200 μM LRRASLG (Kemptide), 10 mM MgAcetate and [γ^33P-ATP]. The reaction was initiated by the addition of the MgATP mix. After incubation for 40 minutes at room temperature, the reaction was stopped by addition of 5 μL of a 3% phosphoric acid solution. 10 μL of the reaction was then spotted onto a P30 filtermat and washed three times for 5 minutes in 50 mM phosphoric acid and once in methanol prior to drying and scintillation counting. Wells containing substrate but no kinase and wells containing a phosphopeptide control were used to set 0% and 100% phosphorylation value, respectively.

T1 sequence (P04629 33-796): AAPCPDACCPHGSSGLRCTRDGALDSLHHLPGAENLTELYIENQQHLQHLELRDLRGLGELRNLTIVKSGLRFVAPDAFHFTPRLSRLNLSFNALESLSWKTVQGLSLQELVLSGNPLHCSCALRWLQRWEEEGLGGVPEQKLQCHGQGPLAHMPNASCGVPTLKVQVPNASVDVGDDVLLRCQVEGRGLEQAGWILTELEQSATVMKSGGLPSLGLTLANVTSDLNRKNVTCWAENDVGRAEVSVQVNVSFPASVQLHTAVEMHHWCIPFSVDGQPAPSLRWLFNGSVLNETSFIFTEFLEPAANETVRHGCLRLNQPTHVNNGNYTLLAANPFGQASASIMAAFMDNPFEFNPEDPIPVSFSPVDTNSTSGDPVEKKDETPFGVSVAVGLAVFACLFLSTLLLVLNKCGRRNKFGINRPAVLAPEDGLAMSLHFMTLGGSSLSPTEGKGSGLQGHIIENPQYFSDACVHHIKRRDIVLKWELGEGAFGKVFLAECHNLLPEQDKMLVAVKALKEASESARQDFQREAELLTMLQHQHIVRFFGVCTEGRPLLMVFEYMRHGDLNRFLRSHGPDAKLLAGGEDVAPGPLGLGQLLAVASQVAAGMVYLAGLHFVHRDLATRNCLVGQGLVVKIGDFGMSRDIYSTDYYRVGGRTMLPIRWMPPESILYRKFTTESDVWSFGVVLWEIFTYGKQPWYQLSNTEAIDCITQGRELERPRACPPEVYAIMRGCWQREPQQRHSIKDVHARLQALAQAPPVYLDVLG

Compound	inhibition at 1 µM [%]	% Inhibition@ 1 μM (TrkA(h)) [%]
CC(Nc1cc(Nc2cc(C3CC3)[nH]n2)ncn1)c1c(F)cccc1F (single isomer, unassigned) [Example 30]	100	–
C[C@H](Nc1cc(Nc2cc(C3CC3)[nH]n2)ncn1)c1ccc(F)cc1 [Example 23, (S)—N4-(5-cyclopropyl-1H-pyrazol-3-yl)-N6-(1-(4-fluorophenyl)ethyl)pyrimidine-4,6-diamine]	99	–
Cc1c(Nc2cc(C3CC3)[nH]n2)ncnc1N[C@@H](C)c1ccc(F)cc1 [Example 24]	31	–
COc1c(Nc2cc(C3CC3)[nH]n2)ncnc1N[C@@H](C)c1ccc(F)cc1 [Example 25, (S)—N4-(5-cyclopropyl-1H-pyrazol-3-yl)-N6-(1-(4-fluorophenyl)ethyl)-5-methoxypyrimidine-4,6-diamine]	0	–
C[C@H](Nc1ncnc(Nc2cc(C3CC3)[nH]n2)c1C#N)c1ccc(F)cc1 [Example 26]	49	–
C[C@H](Nc1ncnc(Nc2cc(C3CC3)[nH]n2)c1F)c1ccc(F)cc1 [Example 27]	87	–
C[C@H](Nc1ncnc(Nc2cc(C3CC3)[nH]n2)c1Cl)c1ccc(F)cc1 [Example 28, (S)-5-chloro-N4-(5-cyclopropyl-1H-pyrazol-3-yl)-N6-(1-(4-fluorophenyl)ethyl)pyrimidine-4,6-diamine]	56	–
CN1CCN(c2ccc(CNc3ncnc(Nc4cc(C5CC5)[nH]n4)c3C#N)cc2)CC1 [Example 29]	-5	–
CC(Nc1cc(Nc2cc(C3CC3)n(C(=O)OC(C)(C)C)n2)ncn1)c1c(F)cccc1F (stereo not drawn) [Example 31]	99	–
CC(Nc1cc(Nc2cc(C3CC3)[nH]n2)ncn1)c1ccc(F)cc1F (stereo not drawn) [Example 32, N4-(5-cyclopropyl-1H-pyrazol-3-yl)-N6-(1-(2,4-difluorophenyl)ethyl)pyrimidine-4,6-diamine]	104	–
C[C@@H](Nc1cc(Nc2cc(C3CC3)[nH]n2)ncn1)c1ccc(F)cc1F [Example 33]	60	–
C[C@H](Nc1cc(Nc2cc(C3CC3)[nH]n2)ncn1)c1ccc(F)cc1F [Example 34]	101	–
CC(Nc1cc(Nc2cc(C3CC3)[nH]n2)ncn1)c1cc(F)ccc1F (stereo not drawn) [Example 35]	99	–
CC(Nc1cc(Nc2cc(C3CC3)[nH]n2)ncn1)c1ccc(F)cc1Cl (stereo not drawn) [Example 36]	101	–
CC(Nc1cc(Nc2cc(C3CC3)[nH]n2)ncn1)c1ccc(F)c(Cl)c1 (stereo not drawn) [Example 37]	97	–
c1ccc(C(CN2CCOCC2)Nc2cc(Nc3cc(C4CC4)[nH]n3)ncn2)cc1 (stereo not drawn) [Example 38]	71	–
CN1CCN(CC(Nc2cc(Nc3cc(C4CC4)[nH]n3)ncn2)c2ccccc2)CC1 (stereo not drawn) [Example 39]	7	–
OCC(Nc1cc(Nc2cc(C3CC3)[nH]n2)ncn1)c1ccc(F)cc1 (stereo not drawn) [Example 40]	101	–

Compound	inhibition at 1 µM [%]	% Inhibition@ 1 μM (TrkA(h)) [%]
CC(c1cc(F)ccc1F)N(C)c1cc(Nc2cc(C3CC3)[nH]n2)ncn1 (stereo not drawn) [Example 42]	95	–
CC(Nc1cc(Nc2cc(C3CC3)[nH]n2)ncn1)c1ccc(F)cn1 (stereo not drawn) [Example 43, N4-(5-cyclopropyl-1H-pyrazol-3-yl)-N6-(1-(5-fluoropyridin-2-yl)ethyl)pyrimidine-4,6-diamine]	95	–
CC(Nc1cc(Nc2cc(C3CC3)[nH]n2)ncn1)c1ccc(F)cn1 (stereo not drawn) [Example 44, N4-(5-cyclopropyl-1H-pyrazol-3-yl)-N6-(1-(5-fluoropyridin-2-yl)ethyl)pyrimidine-4,6-diamine]	–	98
CC(Nc1cc(Nc2cc(C3CC3)[nH]n2)ncn1)c1ccc(F)cn1 (stereo not drawn) [Example 45, N4-(5-cyclopropyl-1H-pyrazol-3-yl)-N6-(1-(5-fluoropyridin-2-yl)ethyl)pyrimidine-4,6-diamine]	–	100
CC(Nc1cc(Nc2cc(C3CC3)[nH]n2)ncn1)c1ccc(F)cn1 (stereo not drawn) [Example 46, N4-(5-cyclopropyl-1H-pyrazol-3-yl)-N6-(1-(5-fluoropyridin-2-yl)ethyl)pyrimidine-4,6-diamine]	–	98
CC(Nc1cc(Nc2cc(C3CC3)n(C)n2)ncn1)c1ccc(F)cc1F (stereo not drawn) [Example 47]	25	–
CCn1nc(Nc2cc(NC(C)c3ccc(F)cc3F)ncn2)cc1C1CC1 (stereo not drawn) [Example 48]	10	–
CC(Nc1cc(Nc2ccn(C3CCOCC3)n2)ncn1)c1ccc(F)cc1F (stereo not drawn) [Example 49]	5	–
Cc1cc(Nc2cc(NC(C)c3ccc(F)cc3F)ncn2)n[nH]1 (stereo not drawn) [Example 50]	99	–
CCCc1cc(Nc2cc(NC(C)c3ccc(F)cc3F)ncn2)n[nH]1 (stereo not drawn) [Example 51]	100	–
CC(Nc1cc(Nc2cc(C3CC3)[nH]n2)ncn1)c1ccc(F)cn1 (stereo not drawn) [Example 52, N4-(5-cyclopropyl-1H-pyrazol-3-yl)-N6-(1-(5-fluoropyridin-2-yl)ethyl)pyrimidine-4,6-diamine]	–	101
C[C@H](Nc1cc(Nc2cc(C3CC3)[nH]n2)nc(N)n1)c1ccc(F)cc1F [Example 53]	100	–
C[C@H](Nc1cc(Nc2cc(C3CC3)[nH]n2)ncn1)c1ccc(F)cc1Cl [Example 54]	100	–
COCC(Nc1cc(Nc2cc(C3CC3)[nH]n2)ncn1)c1ccccc1 (stereo not drawn) [Example 55]	85	–
CN(C)CC(Nc1cc(Nc2cc(C3CC3)[nH]n2)ncn1)c1ccccc1 (stereo not drawn) [Example 56]	67	–
CC(Nc1cc(Nc2cc(C3CC3)[nH]n2)ncn1)c1ccc(F)cn1 (stereo not drawn) [Example 57, N4-(5-cyclopropyl-1H-pyrazol-3-yl)-N6-(1-(5-fluoropyridin-2-yl)ethyl)pyrimidine-4,6-diamine]	–	95
C[C@H](Nc1ncnc(Nc2cc(C3CC3)[nH]n2)n1)c1ccc(F)cc1F [Example 58]	100	–
C[C@H](Nc1ncnc(Nc2cc(C3CC3)[nH]n2)n1)c1ccc(F)cc1Cl [Example 59]	100	–
